Source: US6838476B1, “Imidazoles with anti-inflammatory activity” (J. Uriach & Cia, SA, priority 1998, dated 2005)

Key:
[1] = target: T1, cyclooxygenase-2 (COX-2) (Homo sapiens, UniProt P35354); assay: Inhibition of cyclooxygenase-2 (COX-2) activity in human blood (prostaglandin E2 levels after LPS, aspirin added); assay type: cell-based; details: for inhibition at 1 µM: read-out: % inhibition COX-2 (1 μM), 1 μM test compound; for inhibition at 10 µM: read-out: % inhibition COX-2 (10 μM), 10 μM test compound; for % inhibition COX-2 (1 μM): 1 μM test compound; for % inhibition COX-2 (10 μM): 10 μM test compound
T1 construct: 5 μL of LPS is also added (in order to induce COX-2 activy); from tissue; host or cells: heparinized human whole blood, LPS-stimulated, with aspirin added
T1 sequence (P35354 18-604): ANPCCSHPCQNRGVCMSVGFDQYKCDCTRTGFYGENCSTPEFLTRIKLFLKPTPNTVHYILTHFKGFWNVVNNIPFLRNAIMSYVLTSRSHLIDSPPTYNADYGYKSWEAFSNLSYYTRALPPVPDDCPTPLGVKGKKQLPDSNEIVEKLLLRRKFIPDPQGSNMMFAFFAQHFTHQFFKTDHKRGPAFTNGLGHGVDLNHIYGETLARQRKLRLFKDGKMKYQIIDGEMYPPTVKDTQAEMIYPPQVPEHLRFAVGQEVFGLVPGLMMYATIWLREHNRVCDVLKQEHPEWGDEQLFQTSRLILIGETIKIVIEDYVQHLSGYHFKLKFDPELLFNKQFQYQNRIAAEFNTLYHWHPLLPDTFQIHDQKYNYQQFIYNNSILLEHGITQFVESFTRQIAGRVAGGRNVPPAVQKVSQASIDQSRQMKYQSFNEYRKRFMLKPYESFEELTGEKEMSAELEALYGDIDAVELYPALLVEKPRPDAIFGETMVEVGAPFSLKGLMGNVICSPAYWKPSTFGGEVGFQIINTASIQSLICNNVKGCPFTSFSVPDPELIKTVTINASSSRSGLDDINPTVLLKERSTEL
Procedure: (§1) Inhibition of cyclooxgenase-1 (COX-1) and cyclooxygenase-2 (COX-2) Activity in Human Blood
Blood is divided into two groups; one will be used to determine COX-1 activity and the other one for COX-2. The procedure to follow will be different in each case.
For COX-2, 3-mL tubes are prepared in duplicate containing 5 μL of the test compound (solution in DMSO) and 5 μL of vehicle in the case of blanks and controls. To each tube, 5 μL of a 2 mg/mL solution of aspirin in DMSO is also added (in order to inhibit COX-1 activity), and to all tubes except the blanks 5 μL of LPS is also added (in order to induce COX-2 activy). Finally, 1 mL of heparinized blood is added to each tube, and tubes are then stirred and placed in a thermostatized bath at 37° C. for 24 h. Then, tubes are centrifuged at 2000 g for 10 min at 4° C., the resulting plasma is collected and is frozen at −70° C. until use. COX-2 activity is determined by measuring prostaglandin E2 levels in the samples. The plasma stored at −70° C. is defrozen and prostaglandin E2 levels in these samples are determined using a kit (Kit Prostaglandin E2, Biotrak EIA system RPN222 Amershan), according to the manufacturer's instructions.

[2] = target: T2, cyclooxygenase-1 (COX-1) (Homo sapiens, UniProt P23219); assay: Inhibition of cyclooxygenase-1 (COX-1) activity in human blood (thromboxane B2 levels after ionophore A23187); assay type: cell-based; details: for inhibition at 10 µM: read-out: % inhibition COX-1 (10 μM), 10 μM test compound; for % inhibition COX-1 (10 μM): 10 μM test compound
T2 construct: from tissue; host or cells: heparinized human whole blood
Procedure: as §1
Heparinized human blood from healthy volunteers who had not taken non-steroidal anti-inflammatory drugs (NSAIDs) for a week, and neither alcohol nor xanthines 24 h before blood collection, is used. Blood is divided into two groups; one will be used to determine COX-1 activity and the other one for COX-2. The procedure to follow will be different in each case.
For COX-1, 12-mL tubes are used. 5 μL of the test compound (in DMSO solution; in duplicate) are placed in each tube. Aditionally two tubes for blanks and two tubes for controls containing 5 μL of DMSO are used. Next, 1 mL of blood is added to each tube and they are stirred. The tubes are placed in a thermostatized bath at 37° C. for 5 h. Then, 5 μL of 5 mM ionophore A23187 is added to each tube, except to the blanks, and tubes are incubated for 30 min more at 37° C. After this time, the tubes are placed in ice and 100 μL of a 100 mM EGTA solution is added to stop the reaction. 2.5 mL of methanol is added to each tube to reach a final concentration of 70%. The tubes are stirred and frozen at −70° C. till their use. The COX-1 activity is determined by measuring thromboxane B2 levels in the samples. Blood is defrozen and centrifuged at 2000 g for 10 min at 4° C. 1 mL of supematant is evaporated under nitrogen to dryness. The solid residue thus obtained is resuspended in 1 mL of saline and the thromboxane B2 levels in these samples are determined using a kit (Kit Thromboxane B2, Biotrak EIA system RPN220 Amershan), according to the manufacturer's instructions.

T2 sequence (P23219 24-599): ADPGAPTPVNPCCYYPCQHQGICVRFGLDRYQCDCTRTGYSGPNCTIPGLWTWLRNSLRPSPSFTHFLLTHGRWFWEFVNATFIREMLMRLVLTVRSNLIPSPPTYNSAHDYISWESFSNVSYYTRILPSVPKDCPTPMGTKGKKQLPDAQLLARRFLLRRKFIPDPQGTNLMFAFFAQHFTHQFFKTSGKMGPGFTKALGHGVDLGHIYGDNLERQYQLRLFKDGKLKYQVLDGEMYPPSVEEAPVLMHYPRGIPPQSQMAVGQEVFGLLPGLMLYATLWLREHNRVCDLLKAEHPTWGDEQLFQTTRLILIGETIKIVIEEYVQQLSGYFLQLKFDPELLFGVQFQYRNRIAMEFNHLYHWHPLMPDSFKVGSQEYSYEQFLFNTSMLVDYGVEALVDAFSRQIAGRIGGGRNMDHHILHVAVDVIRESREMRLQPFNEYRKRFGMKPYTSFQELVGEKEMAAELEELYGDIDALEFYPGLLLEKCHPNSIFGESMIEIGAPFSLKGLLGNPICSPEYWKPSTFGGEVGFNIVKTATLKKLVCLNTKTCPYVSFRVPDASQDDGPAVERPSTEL

SMILES	inhibition at 1 µM [1] [%]	inhibition at 10 µM [1] [%]	melting point [°C]	inhibition at 10 µM [2] [%]	% inhibition COX-2 (1 μM) [1] [%]	% inhibition COX-2 (10 μM) [1] [%]	% inhibition COX-1 (10 μM) [2] [%]
Cc1ccc(-n2c(-c3ccc(S(C)(=O)=O)cc3)cnc2Cl)cc1 [Example 12, 2-Chloro-1-(4-methylphenyl)-5-(4-methylsulfonylphenyl)imidazole]	83.6	100	156 to 160	70.6			
Cc1ccc(-c2c(Cl)ncn2-c2ccc(S(C)(=O)=O)cc2)cc1 [4(1), 4-Chloro-5-(4-methylphenyl)-1-(4-methylsulfonylphenyl)imidazole]		100		34			
Cc1ccc(-c2c(Cl)ncn2-c2ccc(S(N)(=O)=O)cc2)cc1 [13(3), 4-[4-Chloro-5-(4-methylphonyl)imidazol-1-yl]benzenesulfonamide]					76.1	100	71.3
CCOc1ccc(-c2c(Cl)ncn2-c2ccc(S(C)(=O)=O)cc2)cc1 [4(22), 4-Chloro-5-(4-ethoxyphenyl)-1-(4-methylsulfonylphenyl)imidazole]	100	100		72.1			
CS(=O)(=O)c1ccc(-c2cnc(Cl)n2-c2ccc(F)cc2)cc1 [Example 7, 2Chloro-1-(4-fluorophenyl)-5-(4-methylsulfonylphenyl)imidazole]	85.6	100		60.1			
CS(=O)(=O)c1ccc(-n2cnc(Cl)c2-c2ccccc2)cc1 [4(3), 4-Chloro-1-(4-methylsulfonylphenyl)-5-phenylimidazole]	82.6	96		47.9			
CS(=O)(=O)c1ccc(-n2cnc(Cl)c2-c2ccc(F)cc2)cc1 [Example 4, 4-Chloro-5-(4-fluorophenyl)-1-(4-methylsulfonylphenyl)imidazole]	89	100		37.8			
CS(=O)(=O)c1ccc(-n2cnc(Cl)c2-c2ccc(Cl)nc2Cl)cc1 [4(17)]					65	86.3	22.7
